Measured values taken from US8389513B2, “2-amino-5,5-difluoro-5,6-dihydro-4H-[1,3]oxazin-4-yl)-phenyl]-amides” (Hoffmann-La Roche Inc., priority 2009, dated 2013).

How the values were obtained:
[1] = biological target: T1, cathepsin D (from human liver) (Homo sapiens, UniProt P07339); assay: Cathepsin D fluorescent substrate kinetic assay; assay type: biochemical; conditions: pH 5.5
T1 construct: cathepsin D (from human liver, Calbiochem); purchased Calbiochem; host or cells: human liver
From the text: (§1) Cathepsin D and Cathepsin E Fluorescent Substrate Kinetic Assays
The MR121 fluorescence assays described below are based on the fact that MR121 forms a non-fluorescent ground state complex with tryptophan. In solution this formation occurs at millimolar concentrations of tryptophan. The mechanism can be used to design a generic biochemical assay for proteases. A substrate peptide is labeled at the N-terminus with tryptophan and at the C-terminus with the fluorophore MR121 (for cathepsin D the 10 amino acid peptide […]-MR121 was used; for cathepsin E, MR121-[…] was used). In absence of protease activity, the substrates remain intact and the MR121 fluorescence is reduced by the high local Trp-concentration. If the substrates are cleaved by the enzymes the MR121 fluorescence is recovered.
The fluorescent substrate cathepsin D and cathepsin E kinetic assays were performed at room temperature in 384-well microtiter plates (black with clear flat bottom, non binding surface plates from Corning) in a final volume of 51 μl. The test compounds were serially diluted in DMSO (15 concentrations, 1/3 dilution steps) and 1 μl of diluted compounds were mixed for 10 min with 40 μl of cathepsin D (from human liver, Calbiochem) diluted in assay buffer (100 mM sodium acetate, 0.05% BSA, pH 5.5; final concentration: 200 nM) or with 40 μl of recombinant human cathepsin E (R&D Systems) diluted in assay buffer (100 mM sodium acetate, 0.05% BSA, pH 4.5; final concentration: 0.01 nM). After addition of 10 μl of the cathepsin D substrate […]-MR121 diluted in cathepsin D assay buffer (final concentration: 300 nM) or 10 µl of the cathepsin E substrate MR121-[…] diluted in cathepsin E assay buffer (final concentration: 300 nM), the plates were strongly shaken for 2 minutes. The enzymatic reaction was followed in a plate: vision reader (Perkin Elmer) (excitation wavelength: 630 nm; emission: 695 nm) for at least 30 minutes in a kinetic measurement detecting an increase of MR121 fluorescence during the reaction time. The slope in the linear range of the kinetic was calculated and the IC50 of the test compounds were determined using a four parameter equation for curve fitting.

BACE2 = biological target: T2, BACE2 (Rattus norvegicus, UniProt Q6IE75); assay: Assay for BACE inhibition by measuring cellular TMEM27 cleavage; assay type: cell-based; conditions: INS-TMEM27 cells (INS1e-derived); shed TMEM27 by ELISA; read-out: BACE2 cell act. IC50
T2 construct: endogenous cellular BACE2 in the Ins1e rat cell line; endogenous in cells; host or cells: INS-TMEM27 (INS1e-derived rat cell line with TetOn-inducible full-length hTMEM27)
T2 sequence (Q6IE75 63-514): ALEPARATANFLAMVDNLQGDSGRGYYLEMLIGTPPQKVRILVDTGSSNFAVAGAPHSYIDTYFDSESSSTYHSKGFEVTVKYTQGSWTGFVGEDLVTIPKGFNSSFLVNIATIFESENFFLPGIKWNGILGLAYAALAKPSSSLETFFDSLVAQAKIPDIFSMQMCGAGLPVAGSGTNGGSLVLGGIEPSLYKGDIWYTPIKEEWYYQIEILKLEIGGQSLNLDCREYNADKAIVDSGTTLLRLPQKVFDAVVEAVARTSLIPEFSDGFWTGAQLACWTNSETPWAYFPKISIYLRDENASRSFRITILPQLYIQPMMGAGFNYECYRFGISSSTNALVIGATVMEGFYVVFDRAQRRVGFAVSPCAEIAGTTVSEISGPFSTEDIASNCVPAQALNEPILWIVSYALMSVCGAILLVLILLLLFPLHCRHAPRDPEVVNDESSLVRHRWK
Outline: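 Ins1e-derived INS-TMEM27 rat cells with doxycycline-inducible full-length human TMEM27; inhibitor added 2 h before doxycycline (500 ng/ml final), then 46 h at 37 °C. Shed TMEM27 in supernatant quantified by sandwich ELISA with anti-human-TMEM27 antibodies; EC50 from curve fit across inhibitor concentrations.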

[2] = biological target: T3, recombinant human cathepsin E (Homo sapiens, UniProt P14091); assay: Cathepsin E fluorescent substrate kinetic assay; assay type: biochemical; conditions: pH 4.5
T3 construct: purchased R&D Systems
T3 sequence (P14091 54-396): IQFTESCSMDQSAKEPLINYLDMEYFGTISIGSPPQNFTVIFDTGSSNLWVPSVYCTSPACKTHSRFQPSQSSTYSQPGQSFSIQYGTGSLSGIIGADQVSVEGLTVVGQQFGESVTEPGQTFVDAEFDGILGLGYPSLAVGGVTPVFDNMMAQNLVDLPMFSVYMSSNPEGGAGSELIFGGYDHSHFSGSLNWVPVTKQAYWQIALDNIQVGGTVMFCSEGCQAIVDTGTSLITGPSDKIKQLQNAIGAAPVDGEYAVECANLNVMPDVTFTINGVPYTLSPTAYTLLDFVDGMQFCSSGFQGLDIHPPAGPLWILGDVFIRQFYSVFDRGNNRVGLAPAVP
From the text: as §1
The MR121 fluorescence assays described below are based on the fact that MR121 forms a non-fluorescent ground state complex with tryptophan. In solution this formation occurs at millimolar concentrations of tryptophan. The mechanism can be used to design a generic biochemical assay for proteases. […] In absence of protease activity, the substrates remain intact and the MR121 fluorescence is reduced by the high local Trp-concentration. If the substrates are cleaved by the enzymes the MR121 fluorescence is recovered.
The fluorescent substrate cathepsin D and cathepsin E kinetic assays were performed at room temperature in 384-well microtiter plates (black with clear flat bottom, non binding surface plates from Corning) in a final volume of 51 μl. The test compounds were serially diluted in DMSO (15 concentrations, 1/3 dilution steps) and 1 μl of diluted compounds were mixed for 10 min with 40 μl of cathepsin D (from human liver, Calbiochem) diluted in assay buffer (100 mM sodium acetate, 0.05% BSA, pH 5.5; final concentration: 200 nM) or with 40 μl of recombinant human cathepsin E (R&D Systems) diluted in assay buffer (100 mM sodium acetate, 0.05% BSA, pH 4.5; final concentration: 0.01 nM). […] The enzymatic reaction was followed in a plate: vision reader (Perkin Elmer) (excitation wavelength: 630 nm; emission: 695 nm) for at least 30 minutes in a kinetic measurement detecting an increase of MR121 fluorescence during the reaction time. The slope in the linear range of the kinetic was calculated and the IC50 of the test compounds were determined using a four parameter equation for curve fitting.

in vivo effect = conditions: po; % of control @ 30 mg/kg p.o.

T1 sequence (P07339 65-412): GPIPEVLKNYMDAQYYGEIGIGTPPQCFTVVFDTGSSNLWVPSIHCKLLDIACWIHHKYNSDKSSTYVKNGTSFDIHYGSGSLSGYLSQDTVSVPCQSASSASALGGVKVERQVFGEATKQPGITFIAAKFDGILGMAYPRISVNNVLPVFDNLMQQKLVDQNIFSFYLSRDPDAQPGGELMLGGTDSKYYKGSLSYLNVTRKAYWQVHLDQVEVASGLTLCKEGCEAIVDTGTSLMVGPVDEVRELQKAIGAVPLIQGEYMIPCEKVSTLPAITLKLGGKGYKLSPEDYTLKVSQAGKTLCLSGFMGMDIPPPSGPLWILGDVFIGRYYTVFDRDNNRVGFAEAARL

IC50 [1]: 69 µM
IC50 (BACE2): 0.074 µM
IC50 [2]: 73 µM
SMILES: C[C@]1(c2cc(NC(=O)c3ccc(C#N)cn3)ccc2F)N=C(N)OCC1(F)F [Example 11, 5-Cyano-pyridine-2-carboxylic acid [3-((R)-2-amino-5,5-difluoro-4-methyl-5,6-dihydro-4H-[1,3]oxazin-4-yl)-4-fluoro-phenyl]-amide]
response vs control in vivo at 30 mg/kg (in vivo effect): < 50%
